Results on three molecules are retold here after patent US10233447B2, “Self-cleaving ribozymes and uses thereof” (The Children s Medical Center Corporation, priority 2003, dated 2019).

Values joined by “and” are separate entries in the source; they are usually repeats but may differ in a detail not shown here. Equal values may be shown once. “Also recorded” adds a separate entry of the source.

In one data set the test system is N79 rz. The data set can be described thus: microbe, parasite or virus in culture. The format is cell-based, Schistosoma mansoni. The following applies: for luciferase activity, emission: untreated 1,555, background 121.
In the next data set the test system is double functional N79 rz. The data set can be described thus: In vivo induction of luciferase in retina injected with AAV carrying double N79 rz, bioluminescent imaging. The arrangement: species or system nude mice. Particulars: for luciferase expression in retina: mice with AAV carrying double functional N79, drug pellet, day 2. The method, then:
FIG. 4 show effective control of gene expression in vivo using rz-based gene regulation system. […] AAV injection was done 3 weeks prior to the first imaging day (day 0). Drug-releasing pellets were implanted subcutaneously in the dorsal neck immediately after the first imaging, and released the drug over 7 days. The toyocamycin pellet contains 10 μg of drug; adenosine pellet 50 μg.
Having documented the ability of the rz-based regulation system to function in mammalian cell culture, a final important issue to be addressed was whether the intracellular machinery and ‘environment’ necessary for self-cleavage was operable in primary cells in vivo. […] After 21 days, the injected animals were imaged for luciferase gene expression using the Xenogen IVIS imager, which provides a quantitative measure ofluciferase expression based on single-photon detection (Contag, et al., 1998, Nat Med 4, 245-7). […] Two days later, all animals were then imaged for luciferase expression. […] Quantification of the photon output indicated gene expression was ‘induced’ 39, 185, and 191-fold in the three mice infected with virus carrying the functional rzs and treated with toyocamycin. […] While the retina may be particularly accessible to ‘inducer’ due to its extensive vascularization, Applicants have shown in preliminary experiments that gene regulation can be accomplished at a number of other anatomical sites in vivo (e.g., muscle and ear).
Prior to imaging, the anesthetized mice were injected with 150 μl of luciferin (30 mg/ml) and the pupils were moistened and dilated with 1% tropicamide. A series of bioluminescent images were taken for up to 30 minutes using the Xenogen IVIS imager. Photon output was quantified at the plateau of the time course using the LivingImage software. Induction in fold was calculated based on the photon output in the retina before and after drug treatment, and was normalized to the photon output from the leg muscles. Adenosine was purchased from Innovative Research of America.

A further data set deals with 293 cells. The data set can be described thus: Transient transfection LacZ reporter assay of ribozyme self-cleavage. The data set is classed as cell-based. Particulars: rz at position E of pMD vector. An excerpt:
The approach is critically dependent upon both the ability of a specific self-cleaving ribozyme (rz) to effect the highly efficient cleavage (>99%) of an mRNA molecule into which it is embedded, and the availability of a small molecule capable of efficiently inhibiting self-cleavage of the cis-acting rz within an intracellular milieu. A first step in our studies was to identify candidate rz sequences capable of efficient cleavage in mammalian cells in the context of an ‘expression’ vector. For this purpose, Applicantsmade use of a transient transfection assay involving a standard mammalian expression vector (Ory, et al., 1996, Proc Natl Acad Sci USA 93, 11400-6) which encodes a LacZ reporter (FIG. 1b). […] After transfection of 293 cells with these vectors, protein extracts were prepared from cells and the β-gal level quantified.
1.5 μl Fugene-6 (Roche, Basel, Switzerland) was diluted in 100 μl OPTIMEM (Gibco, Carlsbad, Calif.) and incubated for 5 minutes at room temperature. This solution was added dropwise to 0.45 μg plasmid DNA and incubated for 15 minutes. The plasmid DNA contains either a wildtype or a mutant ribozyme and a Lacz reporter gene. The DNA mixture was then added dropwise to 3×10^5 HEK 293 cells (plated the previous day in a 35 mm dish). Cells were harvested for β-galactosidase assay 24 hours following transfection.
Plasmids carrying different ribozymes were transfected into HEK293T cells and lysed 24 h later. The cell extracts were incubated with ONPG, and the amount of B-galactosidase in cell extracts was measured by quantifying the processed ONPG using a luminometer.
Cleaving activity was determined by comparing the level of −galactosidase measured in the test sample to a control comprising a point mutation (A-+G) at position 14 which attenuates ribozyme activity. Briefly, transfected HEK293 cells were lysed with a lysis solution and the extracts of cells were separated from cell debris. The extracts were then incubated with ONPG, a chromogenic substrate of β-galactosidase. […] The intensity of yellow light emission was measured with a luminometer (Miller J., Experiments in Molecular Genetics, Cold Spring Harbor Laboratory, Cold Spring Harbor, N.Y. (1972)).
For orientation: In a reporter assay the amount or activity of a reporter protein is the signal.

Data set [1] deals with self-cleavage of full length ribozymes. The data set can be described thus: Catalytic rate measurement of in vitro transcribed ribozymes. The data set is classed as biochemical. Particulars: 50 mM Tris-HCl pH7.5, 23° C. How it is done: Ribozymes were generated by in vitro transcription in the presence of 50 uM blocking antisense oligos. Full length ribozymes were purified and the cleavage rate determined in 50 mM Tris-HCI, pH7.5 at 23° C. Kobs was calculated according to the equation F1=F0+F∞(l−e^kt).

Data set [2] has as its system a variety of other commonly used cell lines. Kind of data set: Transfection of N79 rz vector into other cell lines. The format is cell-based. Particulars: after transfection. An excerpt:
(a) and (b) N79 functioned efficiently in a variety of cell types. Numbers are the measurements of β-gal expressed. (c) N79 functioned efficiently at some but not all positions within the vector. […] The ±signs indicate standard deviation from mean of at least four independent measurements.
In addition, the N79 rz was able to function efficiently when placed within other transcriptional units which made use of different promoters and a different reporter gene (eGFP) (FIG. 2b). As Applicants had observed in the primary screen of different rz motifs for activity in mammalian cells, N79 was able to function when placed in several, but not all locations of the pMD transcriptional unit, albeit at different efficiencies (FIG. 2c). Importantly, placement of two rz sequences in tandem, in some cases (e.g., E position) led to a dramatic suppression of reporter gene expression (FIG. 2c).

In general, EC50 refers to the concentration at which the effect is half-maximal. In the case of `N#Cc1cn([C@@H]2O[C@H](CO)[C@@H](O)[C@H]2O)c2ncnc(N)c12` [Toyocamycin], the “luciferase activity, emission” value in the data set on N79 rz (0.5 μM, 24 hours) is reported as 66,774 photons per second per 1000 cells; in the data set on N79 rz (1 μM, 24 hours), 242,546 photons per second per 1000 cells; in the data set with N79 rz (1.5 μM, 24 hours), 377,655 photons per second per 1000 cells. This molecule also displayed an EC50 in the data set with N79 rz (Schistosoma mansoni, inhibition of ribozyme activity in cells) of 400 nM. The maximal fold induction with N79 rz (Schistosoma mansoni, inhibition of ribozyme activity in cells, read-out: Foldmax) came to 365. Besides, the “amount of luciferase mRNA” value in the data set with N79 rz (northern blot, nucleus and cytoplasm, 24 hours of treatment) was “increased to a level comparable to that of cells carrying inactive rz”. Moreover, in the data set with N79 rz (stable cell line, 24 hours), the “concentrations at which toxic effects were observed” value is reported as “higher than 1.5 μM”. Further, in the data set on N79 rz (stable cell line, double N79 rz), the “luciferase protein expression / induced gene expression” value was “dramatic increase”. Further, in the data set with double functional N79 rz (animal showing 191-fold induction), the “induced gene expression level relative to virus carrying inactive rzs” value is at most 40%. The “gene expression 'induced', photon output in retina” value with double functional N79 rz (individual mice, functional rzs, 10 μg pellet subcutaneous, day 2, normalized to leg muscles) is 39 fold and 185 fold and 191 fold. Further, the “luciferase expression in retina” value in the data set with double functional N79 rz is recorded as “readily detectable expression; also recorded: strong induction”.

For the molecule `Nc1ncnc2c1ncn2[C@@H]1O[C@H](CO)[C@@H](O)[C@H]1O` [adenosine], the “ability to inhibit rz self-cleavage” value with N79 rz was “no ability”. Also, the “luciferase expression in retina” value in the data set with double functional N79 rz is reported as “little if any gene expression”.

B1: N79: N73 ribozyme transferred to position E of the vector, SEQ ID NO: 5 (nucleic acid)
chain: CUGAGAUGCAGGUACAUCCAGCUGAUGAGUCCCAAAUAGGACGAAACGCGCUUCGGUGCGUCCUGGAUUCCACUGCUAUCCAC
As for B1, the “cleavage activity, fold difference between functional and inactive rz” value in the data set with 293 cells is on record as 225 fold. Further, the Kobs in data set [1] (0.5 mM Mg++) and in data set [1] (10 mM Mg++) was 0.84 ^−min throughout. For the same molecule, in data set [2], the B-gal expression result is reported as “dramatically reduced”.
